Measured values from US10519183B2, “Amine solvate of sodium-glucose linked transporter inhibitor, and preparation method and application thereof” (Youngene Therapeutics Co., Ltd., priority 2016, dated 2019).

How the values were obtained:
SGLT2 = biological target: T1, SGLT2 (Homo sapiens, UniProt P31639); conditions: cited from earlier work
T1 sequence (P31639 1-672): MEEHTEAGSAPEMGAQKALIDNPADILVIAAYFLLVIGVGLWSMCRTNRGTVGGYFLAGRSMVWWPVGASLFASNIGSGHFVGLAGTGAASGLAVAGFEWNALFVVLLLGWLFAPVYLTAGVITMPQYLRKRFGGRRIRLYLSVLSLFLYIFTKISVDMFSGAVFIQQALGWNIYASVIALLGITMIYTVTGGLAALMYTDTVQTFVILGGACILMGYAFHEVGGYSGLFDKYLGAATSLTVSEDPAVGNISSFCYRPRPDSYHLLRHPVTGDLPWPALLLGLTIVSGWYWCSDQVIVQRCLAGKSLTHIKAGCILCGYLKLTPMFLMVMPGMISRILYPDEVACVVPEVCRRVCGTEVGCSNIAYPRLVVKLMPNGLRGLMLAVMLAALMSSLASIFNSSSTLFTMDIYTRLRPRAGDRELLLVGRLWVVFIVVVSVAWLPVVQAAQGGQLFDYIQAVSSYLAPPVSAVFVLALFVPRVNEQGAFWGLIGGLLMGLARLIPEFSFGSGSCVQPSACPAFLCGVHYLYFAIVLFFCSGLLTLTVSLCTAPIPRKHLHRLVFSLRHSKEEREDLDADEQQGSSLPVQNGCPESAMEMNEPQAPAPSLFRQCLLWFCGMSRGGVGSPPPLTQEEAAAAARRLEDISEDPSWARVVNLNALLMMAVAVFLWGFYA

[1] = stress study on physical stability and chemical stability (80° C., one week); type: physicochemical; conditions: for Chemical purity: HPLC
Procedure: The stress study on the physical stability and chemical stability of the diethylamine solvate of the compound of formula (I) and the amorphous compound of formula (I) were carried out. The diethylamine solvate of the compound of formula (I) obtained in Example 3 and the amorphous compound of formula (I) were placed in glass vials respectively in duplicate, about 10 mg each sample. These samples for stability test were placed in an incubator at 80° C. for one week. After being placed for one week, one sample was used for the chemical purity analysis by HPLC method. The other sample was used for the crystal characterization by XRPD.

SGLT1 = biological target: T2, SGLT1 (Homo sapiens, UniProt P13866); conditions: cited from earlier work
T2 sequence (P13866 1-664): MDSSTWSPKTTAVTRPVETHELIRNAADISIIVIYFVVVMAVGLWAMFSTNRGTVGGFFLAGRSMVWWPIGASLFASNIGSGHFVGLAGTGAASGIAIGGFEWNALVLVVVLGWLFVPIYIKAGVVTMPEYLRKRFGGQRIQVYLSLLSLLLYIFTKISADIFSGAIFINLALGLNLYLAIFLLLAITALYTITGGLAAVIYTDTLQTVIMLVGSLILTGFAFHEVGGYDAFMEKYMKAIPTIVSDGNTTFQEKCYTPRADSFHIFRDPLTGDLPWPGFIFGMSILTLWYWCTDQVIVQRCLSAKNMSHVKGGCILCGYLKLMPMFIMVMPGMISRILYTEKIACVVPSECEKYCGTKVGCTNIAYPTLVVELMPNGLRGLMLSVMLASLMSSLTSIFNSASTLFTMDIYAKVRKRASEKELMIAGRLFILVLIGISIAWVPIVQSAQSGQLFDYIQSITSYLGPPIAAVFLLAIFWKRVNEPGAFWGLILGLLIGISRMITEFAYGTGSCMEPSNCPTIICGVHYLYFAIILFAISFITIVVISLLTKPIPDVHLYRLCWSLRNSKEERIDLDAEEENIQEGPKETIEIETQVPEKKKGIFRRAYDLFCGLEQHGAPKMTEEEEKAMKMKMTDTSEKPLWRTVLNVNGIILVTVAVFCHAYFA

degradation at high temperature ([1]; 80° C., stress stability test): changed and degraded immediately | Chemical purity ([1]; After being placed for one week at 80° C.): 90.2% | Chemical purity ([1]; Initial state of the samples): 95.1%
Structure (SMILES): CCc1ccc([C@]23OC[C@](CO)(O2)[C@@H](O)[C@H](O)[C@H]3O)cc1Cc1ccc2c(c1)OCCO2 [compound of formula (I), (1S,2S,3S,4R,5S)-5-(3-((2,3-dihydrobenzo[b][1,4]dioxin-6-yl)methyl)-4-ethylphenyl)-1-(hydroxymethyl)-6,8-dioxabicyclo[3.2.1]octane-2,3,4-triol]
inhibitory effect on SGLT2 (SGLT2): very significant inhibitory effect | inhibitory effect on SGLT1 (SGLT1): significant inhibitory effect
